Source: patent US10300143B2, “Compositions for treating cancer and methods for making the same” (THE BRIGHAM AND WOMEN'S HOSPITAL, INC., priority 2012, dated 2019)
Read-outs that look alike come from different tables or passages of the source.

Columns and labels:
[1] = system: Lewis lung carcinoma (LLC) cells; experiment: Cell viability assay (MTS), platinates; assay type: cell-based; settings: 48 h
Protocol: (§1) The LLC cells, breast cancer cell line (4T1), and hepatocellular carcinoma cells (CP20) were seeded into 96-well flat bottomed plates (4×10^3 cells per well). Drugs or SACNs were added at equivalent Pt concentrations and incubated for 48 h. Viability was quantified using the Cell-Titer 96 Aqueous One Solution™ reagent. Cellular apoptosis was quantified using Annexin-V-Alexa Fluor™ 488 conjugate and propidium iodide staining followed by FACS.
(§2) The Lewis lung carcinoma (LLC) cells, breast cancer cell line (4T1), and hepatocellular carcinoma cells (CP20) were purchased from American Type Culture Collection. LLC cells and CP20 cells were cultured in DMEM and 4T1 cells were cultured in RPMI medium 1640-supplemented with 10% FBS, 50 unit/mL penicillin, and 50 unit/mL streptomycin. Trypsinized cultured LLC, 4T1, and CP20 cells were washed twice with PBS and seeded into 96-well flat-bottomed plates (4×10^3 cells per well). Free drugs and SACNs were added at appropriate concentrations (0.01, 0.1, 1, 10, 20, 50 μM Pt concentration). […] After 2 h incubation in 5% CO2 atmosphere at 37° C., the absorbance in each well was recorded at 490 nm using an Epoch (BioTek™) plate reader. Results were quantified by subtracting the blank value from each value then normalizing against the control values and results were analyzed by using Prism™ software (GraphPad). […]

[2] = system: 4T1 breast cancer cell line; experiment: Cell viability assay (MTS), platinates; assay type: cell-based, murine; settings: 48 h
Protocol: as §1, §2

[3] = system: 4T1 breast tumors
Protocol: The 4T1 breast cancer cells (3×10^5) were implanted subcutaneously in the flanks of 4-wk-old BALB/c mice. […] PBS (100 μL) by tail-vain injection was used as a control for drug treatment. Treatment was started on day 9 postimplantation, and administered every alternate day till day 13. The tumor volumes and body weights were monitored on a daily basis. The tumor volume was calculated by using the formula, L×B^2.
(§3) The tissues were fixed in 10% formalin, paraffin-embedded, and sectioned at the Harvard Medical School Core Facility. Tumor and kidney paraffin sections were deparaffinized and stained with a standard TMR red fluorescent TUNEL kit following the manufacturer's protocol (In Situ Cell Death Detection Kit™, TMR-Red; Roche). The kidney sections were also immunolabeled for KIM1 expression. Images were obtained using a Nikon Eclipse TE2000™ fluorescence microscope equipped with red filter.
The 4T1 breast cancer cells (3×105) were implanted subcutaneously in the flanks of 4-wk-old BALB/c mice (weighing 20 g; Charles River Laboratories). The drug therapy was started on day 9. […] PBS (100 μL) administered by tail-vain injection was used as a control for drug treatment. The tumor volumes and body weights were monitored on a daily basis. The tumor volume was calculated by using the formula, L×B2, where the longest diameter was considered as L and the shortest diameter as measured using a vernier caliper as B. The animals were killed when the average tumor volume of the control exceeded 2,000 mm3 in the control group. The tumors were harvested immediately following sacrifice and stored in 10% formalin for further analysis. All animal procedures were approved by the Harvard Institutional Use and Care of Animals Committee.
as §3, with “with” for “with a”, “Roche).” for “Roche). The kidney sections were also immunolabeled for KIM1 expression.”, “TE2000” for “TE2000™”

[4] = system: K-Ras^LSL/+/Pten^fl/fl ovarian cancer; experiment: In vivo K-ras^LSL/+/Pten^fl/fl ovarian cancer model, platinates; design: species or system mice; settings: Pt dose equivalent to 3 mg/kg of cisplatin
[5] = system: 4T1 cells; experiment: FACS analysis of apoptosis (Annexin-V/PI); assay type: cell-based, murine; settings: 1 μM Pt, 24 h
Protocol: The LLC cells, breast cancer cell line (4T1), and hepatocellular carcinoma cells (CP20) were seeded into 96-well flat bottomed plates (4×10^3 cells per well). Drugs or SACNs were added at equivalent Pt concentrations and incubated for 48 h. Viability was quantified using the Cell-Titer 96 Aqueous One Solution™ reagent. Cellular apoptosis was quantified using Annexin-V-Alexa Fluor™ 488 conjugate and propidium iodide staining followed by FACS. […] After 24 h, the cells were washed with PBS and collected at 0° C. The cells were then treated with Annexin-V-Alexa Fluor 488™ conjugate (Molecular Probes, Invitrogen) and incubated in the dark, at room temperature, for 15 min. The cells were then washed with PBS and incubated with propidium iodide (PI) solution ([…]; Sigma) containing RNase (1 mg/mL; Sigma). The cell suspension were then transferred to FACS tubes and analyzed for Annexin-V/PI staining on a BD FACS Calibur™ instrument. Data were analyzed using a CellQuestPro™ software (BD Biosciences).

[6] = system: cisplatin-resistant hepatocellular carcinoma (7404-CP20) cell line; experiment: Cell viability assay (MTS), platinates; assay type: cell-based, human; settings: 48 h
Protocol: as §1, §2

[7] = Maximum tolerated dose (20% body weight loss); assay type: in vivo, BALB/c mice
[8] = single dose, Pt equivalent to 8 mg/kg cisplatin

SMILES	inhibitory activity (cell viability) [1]	inhibitory activity (cell viability) [2]	survival [3, 8]	IC50 [1]	kidney cell death (TUNEL) [4]	tumor apoptosis (TUNEL) [4]	apoptosis and necrosis [5]	IC50 [2]	tumor growth ([3]; multiple dose, 1 and 3 mg/kg, days 9, 11, 13)	survival ([3]; multiple dose, higher dose)	tumor inhibition ([3]; multiple dose, highest doses (3 mg/kg Pt))	tumor inhibition ([3]; multiple dose, lower doses (1 mg/kg Pt))	IC50 [6]	maximum tolerated dose (MTD) [7]
N.N.O=C([O-])C1(C(=O)[O-])CCC1.[Pt+2] [carboplatin]	In neither of these cell lines did carboplatin exert any inhibitory activity at this concentration range	In neither of these cell lines did carboplatin exert any inhibitory activity at this concentration range	only minor increase in survival over vehicle-treated controls	–	–	–	–	–	–	–	–	–	–	–
N.N.[Cl][Pt][Cl] [cisplatin, cis-dichlorodiamineplatinum (II)]	–	–	only minor increase in survival over vehicle-treated controls	2.91 ± 0.015 µM	induced apoptosis of nephrons	apoptosis	more efficacious than carboplatin	4.72 ± 0.016 µM	dose-dependent inhibition of tumor growth	increase survival	identical	greater tumor inhibition as opposed to the higher dose of carboplatin	42.84 ± 0.04 µM	9 mg/kg
